{"source": "patent US20090137661A1", "about": "“PLANT DERIVED COMPOUNDS AND COMPOUND FORMULAE CONTAINING THE SAME FOR THE TREATMENT OF CERVICAL CANCER” (priority 2007, published 2009)", "key": {"HPV 16 pseudovirus": {"test_system": "HPV 16 pseudovirus", "test": "Screening for anti-infection compounds (GFP-expressing HPV 16 pseudovirus infecting HeLa cells)", "assay_type": "cell-based, human papilloma virus 16", "settings": "for IC50: Pseudovirus, HeLa, 48 h, read-out: IC50 for inhibiting HPV 16 pseudoviruses", "protocol": "[…] were co-transfected with codon-modified papillomavirus capsid genes, L1 and L2, plasmid: p16shell, and a GFP reporter plasmid, pClneo-GFP, to monitor the infectivity of the stock.\nThe GFP-expressing HPV 16 pseudoviruses were prepared and harvested in accordance with the protocol provided by the National Cancer Institute (USA). Said protocol is available on line at http://home.ccr.cancer.gov/lco/production.asp which is incorporated herein by reference in its entirety.\nIn the present application, the GFP-expressing HPV 16 pseudoviruses used have titers of about 4*10^8 infectious units per ml.\nHeLa cells were seeded in 96-well plates at a density of 6×10^3 cells per well. 24 hours later, 2×HPV 16 pseudoviruses of various volumes were added. The signal to background ratio of each volume of the HPV 16 pseudoviruses was illustrated in FIG. 2.\nWhen choosing screening platform, the infection rate should be around 20%. […] Under this dosage, the signal to background ratio is 2.0-2.5.\n(§1) Carrageenan was used as positive control. […] The cell survival rate and IC50 of each sample were obtained in accordance with the method stated above."}, "HeLa cells [1]": {"test_system": "HeLa cells", "test": "MTT assay within the anti-infection screening platform", "assay_type": "cell-based, human", "settings": "48 hours, concentrations inhibiting HPV 16 pseudovirus", "description": "as §1"}, "HeLa cells [2]": {"test_system": "HeLa cells", "test": "Cytotoxicity assay (MTT assay) on HeLa cells", "settings": "for IC50: Homo sapiens, HeLa; for cytotoxicity to HeLa cells compared with Doxorubicin HCl: under the corresponding conditions", "protocol": "HeLa cell line was obtained from Dr. S. S. Shen (Biomedical Engineering Research Laboratories of Industrial Technology Research Institute of Taiwan). HeLa cells are adherent cells and were propagated and maintained in Dulbecco's modified Eagle's medium (DMEM) supplemented with 10% fetal bovine serum (FBS), […] sodium bicarbonate (NaHCO3), 1 mM sodium pyruvate, and 0.1 mM non-essential amino acid.\n(§2) Cytotoxicity Assay (MTT Assay)\nThe cytotoxicity of the compounds set forth herein to HeLa cells and HUVEC cells were determined by the MTT assay. The HUVEC cells were used to understand the cytotoxicity of said compounds to normal human cells. Besides, doxorubicin HCl was used as a comparative example so as to investigate the efficacy of the compounds according to the embodiments of the present invention.\nBriefly, the MTT assay comprises the following steps: • (A) Cells were seeded in 96-well plates 3 hours before treatment, wherein the density of HeLa cell is 1×10^4 cells per well and the density of HUVEC cell is 2×10^4 cells per well; • (B) Cells were then treated with various concentrations of tested samples and incubated for a predetermined period (24, 48, and 72 hours); • (C) After the predetermined periods expired, the tested samples were removed and 100 μl MTT reagent (1 mg/ml) was added to each well; • (D) The plates were incubated at 37° C. with 5% of CO2 for 5 hours; • (E) The MTT reagent was removed and 100 μl DMSO was added to each well; • (F) The optical density (O.D.) of each well was determined by ELISA reader at a wavelength of 560 nm.\nEach experiment was repeated for 3 times and the result shown in the tables herein were the mean value of the 3 repetitions. The O.D. of the vehicle control and experimental groups were recorded. The cell survival rate of each sample was calculated as follows:\nCell survival rate(%)=O.D.control/O.D.experimental*100%\nThen, the cell survival rate was plotted against the compound concentration and the IC50 value of each compound was calculated by the GraFit data analysis software (Erithacus Software Ltd.)."}, "HUVEC cells": {"test_system": "HUVEC cells", "test": "Cytotoxicity assay (MTT assay) on HUVEC cells", "assay_type": "cell-based, human", "description": "Human umbilical vein endothelial cells (HUVEC) were purchased from Food Industry Research and Development Institute in Hsin-Chu City, Taiwan. HUVEC cells were propagated and maintained in Medium 199 supplemented with 10% FBS, Heparin, and […].\nas §2"}}, "note": "Like-named read-outs stand apart in the source and are kept apart here.", "data": [{"molecule": "O=c1cc(-c2ccccc2)oc2cc(O)c(O)c(O)c12", "note": "[Compound C, baicalein]", "values": [{"measurement": "IC50", "setting": "HPV 16 pseudovirus", "value": 8.2, "unit": "µg/mL"}, {"measurement": "survival rates of HeLa cells in anti-infection screening", "setting": "HeLa cells [1]", "value": "higher than 80%"}]}, {"molecule": "O=C(O)c1cc(O)c(O)c(O)c1", "note": "[Compound D, gallic acid]", "values": [{"measurement": "HeLa Cell Survival Rate", "setting": "HeLa cells [2]; 0.125 μg/ml, 24 hrs", "value": 85, "unit": "%"}, {"measurement": "HeLa Cell Survival Rate", "setting": "HeLa cells [2]; 0.125 μg/ml, 48 hrs", "value": 96, "unit": "%"}, {"measurement": "HeLa Cell Survival Rate", "setting": "HeLa cells [2]; 0.125 μg/ml, 72 hrs", "value": 101, "unit": "%"}, {"measurement": "HeLa Cell Survival Rate", "setting": "HeLa cells [2]; 1.25 μg/ml, 24 hrs", "value": 84, "unit": "%"}, {"measurement": "HeLa Cell Survival Rate", "setting": "HeLa cells [2]; 1.25 μg/ml, 48 hrs", "value": 91, "unit": "%"}, {"measurement": "HeLa Cell Survival Rate", "setting": "HeLa cells [2]; 1.25 μg/ml, 72 hrs", "value": 103, "unit": "%"}, {"measurement": "HeLa Cell Survival Rate", "setting": "HeLa cells [2]; 12.5 μg/ml, 24 hrs", "value": 90, "unit": "%"}, {"measurement": "HeLa Cell Survival Rate", "setting": "HeLa cells [2]; 12.5 μg/ml, 48 hrs", "value": 82, "unit": "%"}, {"measurement": "HeLa Cell Survival Rate", "setting": "HeLa cells [2]; 12.5 μg/ml, 72 hrs", "value": 99, "unit": "%"}, {"measurement": "HeLa Cell Survival Rate", "setting": "HeLa cells [2]; 125 μg/ml, 24 hrs", "value": 17, "unit": "%"}, {"measurement": "HeLa Cell Survival Rate", "setting": "HeLa cells [2]; 125 μg/ml, 48 hrs", "value": 11, "unit": "%"}, {"measurement": "HeLa Cell Survival Rate", "setting": "HeLa cells [2]; 125 μg/ml, 72 hrs", "value": 8, "unit": "%"}, {"measurement": "IC50", "setting": "HeLa cells [2]; 24 h, read-out: IC50 at 24 hours, HeLa", "value": 37, "unit": "µg/mL"}, {"measurement": "IC50", "setting": "HeLa cells [2]; 48 h, read-out: IC50 at 48 hours, HeLa", "value": 26, "unit": "µg/mL"}, {"measurement": "IC50", "setting": "HeLa cells [2]; 72 h, read-out: IC50 at 72 hours, HeLa", "value": 45, "unit": "µg/mL"}, {"measurement": "cytotoxicity to HeLa cells compared with Doxorubicin HCl", "setting": "HeLa cells [2]", "value": "higher cytotoxicity"}, {"measurement": "IC50", "setting": "HPV 16 pseudovirus", "value": 8.9, "unit": "µg/mL"}, {"measurement": "survival rates of HeLa cells in anti-infection screening", "setting": "HeLa cells [1]", "value": "higher than 80%"}]}, {"molecule": "Carrageenan [reference compound]", "values": [{"measurement": "IC50 for inhibiting HPV 16 pseudoviruses", "setting": "HPV 16 pseudovirus; HeLa cells infected with 0.25 μl HPV 16 pseudovirus per well, 48 hours", "value": "about 0.07 μg/ml"}]}, {"molecule": "isopsoralen [Compound A]", "values": [{"measurement": "HeLa Cell Survival Rate", "setting": "HeLa cells [2]; 0.125 μg/ml, 24 hrs", "value": 91, "unit": "%"}, {"measurement": "HeLa Cell Survival Rate", "setting": "HeLa cells [2]; 0.125 μg/ml, 48 hrs", "value": 99, "unit": "%"}, {"measurement": "HeLa Cell Survival Rate", "setting": "HeLa cells [2]; 0.125 μg/ml, 72 hrs", "value": 98, "unit": "%"}, {"measurement": "HeLa Cell Survival Rate", "setting": "HeLa cells [2]; 1.25 μg/ml, 24 hrs", "value": 88, "unit": "%"}, {"measurement": "HeLa Cell Survival Rate", "setting": "HeLa cells [2]; 1.25 μg/ml, 48 hrs", "value": 75, "unit": "%"}, {"measurement": "HeLa Cell Survival Rate", "setting": "HeLa cells [2]; 1.25 μg/ml, 72 hrs", "value": 69, "unit": "%"}, {"measurement": "HeLa Cell Survival Rate", "setting": "HeLa cells [2]; 12.5 μg/ml, 24 hrs", "value": 70, "unit": "%"}, {"measurement": "HeLa Cell Survival Rate", "setting": "HeLa cells [2]; 12.5 μg/ml, 48 hrs", "value": 30, "unit": "%"}, {"measurement": "HeLa Cell Survival Rate", "setting": "HeLa cells [2]; 12.5 μg/ml, 72 hrs", "value": 10, "unit": "%"}, {"measurement": "HeLa Cell Survival Rate", "setting": "HeLa cells [2]; 125 μg/ml, 24 hrs", "value": 18, "unit": "%"}, {"measurement": "HeLa Cell Survival Rate", "setting": "HeLa cells [2]; 125 μg/ml, 48 hrs", "value": 11, "unit": "%"}, {"measurement": "HeLa Cell Survival Rate", "setting": "HeLa cells [2]; 125 μg/ml, 72 hrs", "value": 7, "unit": "%"}, {"measurement": "HUVEC/HeLa ratio of IC50", "setting": "HeLa cells [2]; 24 hours", "value": ">4.6"}, {"measurement": "HUVEC/HeLa ratio of IC50", "setting": "HeLa cells [2]; 48 hours", "value": 11.4}, {"measurement": "HUVEC/HeLa ratio of IC50", "setting": "HeLa cells [2]; 72 hours", "value": 19}, {"measurement": "IC50 at 24 hours, HeLa", "setting": "HeLa cells [2]; HeLa cells, 24 hours", "value": 27, "unit": "µg/mL"}, {"measurement": "IC50 at 48 hours, HeLa", "setting": "HeLa cells [2]; HeLa cells, 48 hours", "value": 5, "unit": "µg/mL"}, {"measurement": "IC50 at 72 hours, HeLa", "setting": "HeLa cells [2]; HeLa cells, 72 hours", "value": 2, "unit": "µg/mL"}, {"measurement": "cytotoxicity to HeLa cells compared with Doxorubicin HCl", "setting": "HeLa cells [2]", "value": "higher cytotoxicity"}, {"measurement": "HUVEC Cell Survival Rate", "setting": "HUVEC cells; 0.125 μg/ml, 24 hrs", "value": 103, "unit": "%"}, {"measurement": "HUVEC Cell Survival Rate", "setting": "HUVEC cells; 0.125 μg/ml, 48 hrs", "value": 104, "unit": "%"}, {"measurement": "HUVEC Cell Survival Rate", "setting": "HUVEC cells; 0.125 μg/ml, 72 hrs", "value": 92, "unit": "%"}, {"measurement": "HUVEC Cell Survival Rate", "setting": "HUVEC cells; 1.25 μg/ml, 24 hrs", "value": 103, "unit": "%"}, {"measurement": "HUVEC Cell Survival Rate", "setting": "HUVEC cells; 1.25 μg/ml, 48 hrs", "value": 96, "unit": "%"}, {"measurement": "HUVEC Cell Survival Rate", "setting": "HUVEC cells; 1.25 μg/ml, 72 hrs", "value": 87, "unit": "%"}, {"measurement": "HUVEC Cell Survival Rate", "setting": "HUVEC cells; 12.5 μg/ml, 24 hrs", "value": 100, "unit": "%"}, {"measurement": "HUVEC Cell Survival Rate", "setting": "HUVEC cells; 12.5 μg/ml, 48 hrs", "value": 83, "unit": "%"}, {"measurement": "HUVEC Cell Survival Rate", "setting": "HUVEC cells; 12.5 μg/ml, 72 hrs", "value": 80, "unit": "%"}, {"measurement": "HUVEC Cell Survival Rate", "setting": "HUVEC cells; 125 μg/ml, 24 hrs", "value": 67, "unit": "%"}, {"measurement": "HUVEC Cell Survival Rate", "setting": "HUVEC cells; 125 μg/ml, 48 hrs", "value": 31, "unit": "%"}, {"measurement": "HUVEC Cell Survival Rate", "setting": "HUVEC cells; 125 μg/ml, 72 hrs", "value": 19, "unit": "%"}, {"measurement": "IC50 at 24 hours, HUVEC", "setting": "HUVEC cells; HUVEC cells, 24 hours", "value": ">125", "unit": "µg/mL"}, {"measurement": "IC50 at 48 hours, HUVEC", "setting": "HUVEC cells; HUVEC cells, 48 hours", "value": 57, "unit": "µg/mL"}, {"measurement": "IC50 at 72 hours, HUVEC", "setting": "HUVEC cells; HUVEC cells, 72 hours", "value": 38, "unit": "µg/mL"}]}]}
